Experiments:
Physalis angulata = test: Weed control screen: cutleaf groundcherry; type: in vivo; conditions: 1.0 lb ai/a, applied approximately 3 weeks after emergence, relative to non-treated
Procedure: (§1) Herbicides were applied at a spray volume of 280 L/ha with no adjuvant added to any herbicide mixture. Weed control was rated on a 0 to 100 percent phytoxicity scale with 0 being no plant injury/phytotoxicity and 100 being complete plant dessication. Twenty-one weeds were evaluated for response to herbicides (Table 3). The weeds selected were a mixture of weeds common in agronomic and horticultural crops. Herbicide was applied to all species approximately 3 weeks after emergence. Plant phytotoxicity rated as percent control relative to the non-treated.

[1] = target: recombinant variant E. indica PPO1 A212T (Eleusine indica, UniProt A0A6G5XNV7, A212T); test: In vitro PPO enzyme activity inhibition, variant PPO1 A212T; type: biochemical
recombinant variant E. indica PPO1 A212T, sequence (A0A6G5XNV7 entry or part of it A212T): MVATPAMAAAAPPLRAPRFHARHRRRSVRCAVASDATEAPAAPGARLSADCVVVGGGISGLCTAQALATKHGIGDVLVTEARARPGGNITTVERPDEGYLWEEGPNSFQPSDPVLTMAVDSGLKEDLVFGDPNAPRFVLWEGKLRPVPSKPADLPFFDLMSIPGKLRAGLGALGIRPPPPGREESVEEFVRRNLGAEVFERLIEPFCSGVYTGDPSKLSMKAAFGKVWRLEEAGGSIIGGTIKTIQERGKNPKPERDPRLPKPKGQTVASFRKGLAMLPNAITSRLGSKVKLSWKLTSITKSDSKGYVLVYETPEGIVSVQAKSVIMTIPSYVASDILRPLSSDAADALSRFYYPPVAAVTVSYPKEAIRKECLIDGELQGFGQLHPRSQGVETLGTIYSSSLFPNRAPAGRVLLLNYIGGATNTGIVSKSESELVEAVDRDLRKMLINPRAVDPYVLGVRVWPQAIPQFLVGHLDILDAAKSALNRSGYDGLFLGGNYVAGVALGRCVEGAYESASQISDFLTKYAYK
From the text: (§2) Effects of A212T substitution were studied using the E. indica backbone. The wild-type E. indica PPO1 and the E. indica PPO1 A212T variants were synthesized de novo and subcloned into pRSetB plasmid (Invitrogen, Carlsbad, Calif.). The complete description of expression and purification of E. indica PPO1 and E. indica PPO1 A212T variant proteins were referenced to the method described for PPO2 by Rangani et al. (2019, Frontiers in Plant Sci., 10:568). Six PPO inhibitors, belonging to five different chemical families, were evaluated on the PPO enzyme activity at a concentrations ranging from 5.00×10^−5M to 5.12×10^−12M. Oxadiazon, sulfentrazone, saflufenacil and lactofen are from the class of oxadiazole, triazolinone, pyrimidinedione, and diphenyl ether, respectively. Flumioxazin and trifludimoxazin are from the same chemical family, N-phenylphthalimide. […] The assay was replicated twice.

Sorghum halapense = test: Weed control screen: johnsongrass; type: in vivo; conditions: 1.0 lb ai/a, applied approximately 3 weeks after emergence, relative to non-treated
Procedure: as §1

Conyza candensis = test: Weed control screen: glyphosate-resistant horseweed; type: in vivo; conditions: 1.0 lb ai/a, applied approximately 3 weeks after emergence, relative to non-treated
Procedure: as §1

Jaquemontia tamnifolia = test: Weed control screen: smallflower morningglory; type: in vivo; conditions: 1.0 lb ai/a, applied approximately 3 weeks after emergence, relative to non-treated
Procedure: as §1

Amaranthus palmeri = test: Weed control screen: glyphosate resistant palmer amaranth; type: in vivo; conditions: 1.0 lb ai/a, applied approximately 3 weeks after emergence, relative to non-treated
Procedure: as §1

[2] = target: T1, recombinant wild-type E. indica PPO1 (Eleusine indica, UniProt A0A6G5XNV7); test: In vitro PPO enzyme activity inhibition, wild-type PPO1; type: biochemical
T1 sequence (A0A6G5XNV7 1-529): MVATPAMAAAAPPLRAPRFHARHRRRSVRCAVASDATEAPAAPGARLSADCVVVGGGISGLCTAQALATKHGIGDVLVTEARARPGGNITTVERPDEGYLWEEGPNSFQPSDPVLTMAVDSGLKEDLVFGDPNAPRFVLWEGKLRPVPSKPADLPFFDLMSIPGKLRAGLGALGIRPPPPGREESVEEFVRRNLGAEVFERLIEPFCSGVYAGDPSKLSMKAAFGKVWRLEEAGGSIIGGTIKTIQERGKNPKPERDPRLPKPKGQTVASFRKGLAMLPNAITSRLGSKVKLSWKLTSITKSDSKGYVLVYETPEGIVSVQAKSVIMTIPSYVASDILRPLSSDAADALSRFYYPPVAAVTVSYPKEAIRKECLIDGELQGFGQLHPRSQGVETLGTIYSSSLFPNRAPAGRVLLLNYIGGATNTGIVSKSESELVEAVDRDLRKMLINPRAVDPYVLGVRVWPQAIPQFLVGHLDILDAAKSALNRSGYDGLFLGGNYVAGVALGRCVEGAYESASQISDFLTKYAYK
From the text: as §2, with “Six PPO inhibitors, belonging to five different chemical families, were evaluated on the PPO enzyme activity at a concentrations ranging from 5.00×10^−5M to 5.12×10^−12M.” left out

[3] = system: Twenty-one weeds common in agronomic and horticultural crops; test: Weed control screen: summary over the twenty-one weeds; type: in vivo
Procedure: as §1

[4] = system: PPO1 from R1 and R2 E. indica biotypes (A212T) expressed in hemG mutant E. coli strain SASX38; test: hemG mutant E. coli SASX38 complementation assay, R1 and R2 PPO1; type: cell-based, Eleusine indica; conditions: R1 and R2 alleles; LB medium; 0, 10, 50, 100, 200 μM tested; 37° C., 20 h
From the text: (§3) Two putative PPO-inhibitor resistant (R-) and susceptible (S-) plasmids were created to test the role of the chloroplast-targeted PPO1 in the E. indica biotypes. The PPO1 from R1, R2 and S E. indica biotypes were cloned into the pBAD-TOPO expression vector using the pBAD TOPO™ TA Expression kit (Invitrogen, Carlsbad, Calif.), respectively. The PPO1 product was amplified using the same PCR primers and PCR reaction system as cDNA sequencing, so that the PPO1 translation began at the ATG start codon. Three different pBAD-TOPO PPO1 constructs were created and sequenced to confirm they were identical with the PPO1 gene from R1, R2 and S E. indica biotypes and there were no other nucleotide polymorphisms in the cloning experiment. R- and S-PPO1 plasmids were used to transform a hemG mutant Escherichia coli strain SASX38 by electroporation. The SASX38 mutant strain was grown on LB medium supplemented with 10 μg/mL hematin. Expression of the PPO1 in the transformed colonies of the SASX38 mutant strain were induced on LB medium with 2% L-arabinose. […]

Ipomoea quamoclit = test: Weed control screen: cypressvine morningglory; type: in vivo; conditions: 1.0 lb ai/a, applied approximately 3 weeks after emergence, relative to non-treated
Procedure: as §1

Ipomoea lacunosa = test: Weed control screen: pitted morningglory; type: in vivo; conditions: 1.0 lb ai/a, applied approximately 3 weeks after emergence, relative to non-treated
Procedure: as §1

Sesbania exaltata = test: Weed control screen: hemp sesbania; type: in vivo; conditions: 1.0 lb ai/a, applied approximately 3 weeks after emergence, relative to non-treated
Procedure: as §1

[5] = system: PPO1 from S E. indica biotype (Ala212) expressed in hemG mutant E. coli strain SASX38; test: hemG mutant E. coli SASX38 complementation assay, S PPO1; type: cell-based, Eleusine indica; conditions: LB medium; 0, 10, 50, 100, 200 μM tested; 37° C., 20 h
From the text: as §3

Abutilon theophrasti = test: Weed control screen: velvetleaf; type: in vivo; conditions: 1.0 lb ai/a, applied approximately 3 weeks after emergence, relative to non-treated
Procedure: as §1

[6] = highest herbicide concentration 10^−5 M

Q: With `CC(C)Oc1cc(-n2nc(C(C)(C)C)oc2=O)c(Cl)cc1Cl` [Oxadiazon, oxadiazon] as the compound, how does the “Percent control (0 to 100)” value (Physalis angulata) read?
A: 70%

Q: And the IC50 [1]?
A: > 10000 nM

Q: And the inhibition at 10 µM ([1]; read-out: Variant E. indica PPO1 A212T % inhibition)?
A: 16%

Q: What about the “Percent control (0 to 100)” value (Sorghum halapense) of the same compound?
A: 100%

Q: What about the “Percent control (0 to 100)” value (Conyza candensis) of the same compound?
A: 30%

Q: And the “Percent control (0 to 100)” value (Jaquemontia tamnifolia)?
A: 90%

Q: And the “Percent control (0 to 100)” value (Amaranthus palmeri)?
A: 75%

Q: What about the IC50 [2] of the same compound?
A: 24.7 nM

Q: What about the “Wild-type E. indica PPO1 % inhibition” value [2, 6] of the same compound?
A: >90%

Q: And the inhibition at 10 µM [2, 6]?
A: > 90%

Q: And the “Number of the 21 weeds evaluated controlled at a level greater than or equal to 90%” value ([3]; 1.0 lb ai/a)?
A: 13 weeds

Q: And the “Number of the 21 weeds controlled greater than or equivalent to glyphosate” value ([3]; 1.0 lb ai/a each)?
A: 18 weeds

Q: What about the “Concentration at which the transformed E. coli were able to grow” value [4] of the same compound?
A: up to 200 μM

Q: What about the “Percent control (0 to 100)” value (Ipomoea quamoclit) of the same compound?
A: 100%

Q: What about the “Percent control (0 to 100)” value (Ipomoea lacunosa) of the same compound?
A: 100%

Q: And the “Percent control (0 to 100)” value (Sesbania exaltata)?
A: 100%

Q: What about the “Concentration in medium that inhibited the growth of the transformed E. coli” value [5] of the same compound?
A: 50 µM

Q: What about the “Percent control (0 to 100)” value (Abutilon theophrasti) of the same compound?
A: 100%
